25 molecules from ChEMBL document CHEMBL2429742, “Design, synthesis, and biological evaluation of novel 3-pyrrolo[b]cyclohexylene-2-dihydroindolinone derivatives as potent receptor tyrosine kinase inhibitors” (Bioorg Med Chem Lett, 2013) can be followed below.

Data set [1] addresses Mast/stem cell growth factor receptor Kit (Homo sapiens, UniProt P10721).
The target in data set [2] is Platelet-derived growth factor receptor beta (Homo sapiens, UniProt P09619).
Data set [3] addresses Vascular endothelial growth factor receptor 2 (Homo sapiens, UniProt P35968).
The next data set has as its system HepG2. Description: Antiproliferative activity against human HepG2 cells after 72 hrs by MTT assay. The data set is classed as functional, cell-based. Conditions: HepG2, 72 h. (Tetrazolium dyes change colour on reduction, which living cells bring about.)
The next data set has as its system T-24. Nature of the data set: Antiproliferative activity against human T24 cells after 72 hrs by MTT assay. Format: functional, cell-based. The following applies: T-24, 72 h.
A further data set deals with HT-29. Nature of the data set: cells. The following applies: Homo sapiens, HT-29, 72 h.
A further data set in a line: cells. The following applies: Homo sapiens, BGC, 72 h.
For data set [4], the system named is BXPC-3. Description: cells. Conditions: Homo sapiens, BXPC-3, 72 h.
The nature of data set [5]: Oral bioavailability in cynomolgus monkey. Format: ADME, organism-based, Macaca fascicularis. Conditions: in vivo.
The target in data set [6] is Vascular endothelial growth factor receptor 3 (Homo sapiens, UniProt P35916). Description: Inhibition of VEGFR3 (unknown origin).
Chain of Vascular endothelial growth factor receptor 3 (P35916 whole entry): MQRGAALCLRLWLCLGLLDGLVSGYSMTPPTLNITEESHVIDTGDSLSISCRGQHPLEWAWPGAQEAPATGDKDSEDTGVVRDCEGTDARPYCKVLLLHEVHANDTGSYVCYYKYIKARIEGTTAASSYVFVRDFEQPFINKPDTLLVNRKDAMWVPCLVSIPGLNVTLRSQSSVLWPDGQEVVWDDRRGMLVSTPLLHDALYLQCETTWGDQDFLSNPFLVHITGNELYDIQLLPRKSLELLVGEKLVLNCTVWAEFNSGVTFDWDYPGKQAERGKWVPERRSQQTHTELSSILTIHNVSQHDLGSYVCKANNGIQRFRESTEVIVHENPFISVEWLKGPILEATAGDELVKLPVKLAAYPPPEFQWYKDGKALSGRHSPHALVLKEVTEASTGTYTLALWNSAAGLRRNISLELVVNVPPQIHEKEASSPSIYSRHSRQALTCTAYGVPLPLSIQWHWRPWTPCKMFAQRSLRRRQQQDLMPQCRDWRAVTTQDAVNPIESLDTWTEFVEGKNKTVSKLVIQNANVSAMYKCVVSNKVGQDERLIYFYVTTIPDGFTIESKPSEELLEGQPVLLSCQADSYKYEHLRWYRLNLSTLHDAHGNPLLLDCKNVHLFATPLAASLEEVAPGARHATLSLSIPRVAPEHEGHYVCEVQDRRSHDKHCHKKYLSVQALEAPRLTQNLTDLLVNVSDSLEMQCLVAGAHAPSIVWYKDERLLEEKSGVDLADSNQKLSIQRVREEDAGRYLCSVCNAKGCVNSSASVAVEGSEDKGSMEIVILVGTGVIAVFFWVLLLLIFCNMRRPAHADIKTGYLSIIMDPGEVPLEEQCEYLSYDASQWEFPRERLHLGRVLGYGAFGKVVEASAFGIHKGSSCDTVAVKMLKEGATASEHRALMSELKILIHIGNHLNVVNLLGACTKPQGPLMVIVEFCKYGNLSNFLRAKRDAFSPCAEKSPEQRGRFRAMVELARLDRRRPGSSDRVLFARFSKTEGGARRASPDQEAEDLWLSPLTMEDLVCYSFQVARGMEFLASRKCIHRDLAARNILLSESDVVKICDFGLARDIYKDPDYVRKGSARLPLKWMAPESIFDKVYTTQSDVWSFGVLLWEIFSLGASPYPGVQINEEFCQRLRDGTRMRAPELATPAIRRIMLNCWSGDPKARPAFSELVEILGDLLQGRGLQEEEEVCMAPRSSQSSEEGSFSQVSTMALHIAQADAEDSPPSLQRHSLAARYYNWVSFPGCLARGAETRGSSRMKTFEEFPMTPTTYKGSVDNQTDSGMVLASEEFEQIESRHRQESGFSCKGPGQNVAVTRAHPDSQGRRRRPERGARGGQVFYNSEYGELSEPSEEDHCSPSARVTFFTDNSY
Data set [7] deals with Vascular endothelial growth factor receptor 1 (Homo sapiens, UniProt P17948). Description: Inhibition of VEGFR1 (unknown origin).
The test system of data set [8] is BXPC-3. Description: Ratio of sunitinib IC50 to compound IC50 for human BxPC3 cells. Format: functional.

Chain of Platelet-derived growth factor receptor beta (P09619 whole entry): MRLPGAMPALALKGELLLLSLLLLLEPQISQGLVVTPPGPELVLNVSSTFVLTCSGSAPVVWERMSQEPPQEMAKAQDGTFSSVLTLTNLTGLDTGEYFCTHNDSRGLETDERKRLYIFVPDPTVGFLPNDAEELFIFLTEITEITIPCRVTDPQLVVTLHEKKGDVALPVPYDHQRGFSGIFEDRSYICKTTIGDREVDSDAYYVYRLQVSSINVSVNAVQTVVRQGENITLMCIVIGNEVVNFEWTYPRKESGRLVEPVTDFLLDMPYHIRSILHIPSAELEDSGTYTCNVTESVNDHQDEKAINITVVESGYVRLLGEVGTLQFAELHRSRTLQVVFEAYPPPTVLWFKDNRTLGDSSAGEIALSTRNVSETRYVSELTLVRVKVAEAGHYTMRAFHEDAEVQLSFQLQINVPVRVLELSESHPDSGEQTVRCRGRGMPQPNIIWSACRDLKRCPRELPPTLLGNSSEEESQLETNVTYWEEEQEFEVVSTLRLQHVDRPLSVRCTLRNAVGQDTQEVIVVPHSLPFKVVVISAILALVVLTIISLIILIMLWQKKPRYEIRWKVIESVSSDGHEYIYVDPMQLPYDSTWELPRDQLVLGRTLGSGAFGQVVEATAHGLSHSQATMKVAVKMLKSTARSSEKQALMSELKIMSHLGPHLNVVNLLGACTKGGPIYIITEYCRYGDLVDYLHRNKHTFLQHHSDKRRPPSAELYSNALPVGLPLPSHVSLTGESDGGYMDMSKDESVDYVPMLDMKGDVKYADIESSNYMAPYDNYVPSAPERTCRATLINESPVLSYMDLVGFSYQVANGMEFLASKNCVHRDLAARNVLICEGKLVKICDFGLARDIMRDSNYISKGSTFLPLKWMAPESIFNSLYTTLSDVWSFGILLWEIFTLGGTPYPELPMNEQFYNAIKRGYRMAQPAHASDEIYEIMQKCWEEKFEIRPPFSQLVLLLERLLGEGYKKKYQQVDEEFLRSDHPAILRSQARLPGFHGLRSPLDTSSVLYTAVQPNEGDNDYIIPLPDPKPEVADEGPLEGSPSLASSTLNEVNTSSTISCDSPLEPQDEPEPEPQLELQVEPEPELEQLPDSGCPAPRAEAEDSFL
Chain of Mast/stem cell growth factor receptor Kit (P10721 whole entry): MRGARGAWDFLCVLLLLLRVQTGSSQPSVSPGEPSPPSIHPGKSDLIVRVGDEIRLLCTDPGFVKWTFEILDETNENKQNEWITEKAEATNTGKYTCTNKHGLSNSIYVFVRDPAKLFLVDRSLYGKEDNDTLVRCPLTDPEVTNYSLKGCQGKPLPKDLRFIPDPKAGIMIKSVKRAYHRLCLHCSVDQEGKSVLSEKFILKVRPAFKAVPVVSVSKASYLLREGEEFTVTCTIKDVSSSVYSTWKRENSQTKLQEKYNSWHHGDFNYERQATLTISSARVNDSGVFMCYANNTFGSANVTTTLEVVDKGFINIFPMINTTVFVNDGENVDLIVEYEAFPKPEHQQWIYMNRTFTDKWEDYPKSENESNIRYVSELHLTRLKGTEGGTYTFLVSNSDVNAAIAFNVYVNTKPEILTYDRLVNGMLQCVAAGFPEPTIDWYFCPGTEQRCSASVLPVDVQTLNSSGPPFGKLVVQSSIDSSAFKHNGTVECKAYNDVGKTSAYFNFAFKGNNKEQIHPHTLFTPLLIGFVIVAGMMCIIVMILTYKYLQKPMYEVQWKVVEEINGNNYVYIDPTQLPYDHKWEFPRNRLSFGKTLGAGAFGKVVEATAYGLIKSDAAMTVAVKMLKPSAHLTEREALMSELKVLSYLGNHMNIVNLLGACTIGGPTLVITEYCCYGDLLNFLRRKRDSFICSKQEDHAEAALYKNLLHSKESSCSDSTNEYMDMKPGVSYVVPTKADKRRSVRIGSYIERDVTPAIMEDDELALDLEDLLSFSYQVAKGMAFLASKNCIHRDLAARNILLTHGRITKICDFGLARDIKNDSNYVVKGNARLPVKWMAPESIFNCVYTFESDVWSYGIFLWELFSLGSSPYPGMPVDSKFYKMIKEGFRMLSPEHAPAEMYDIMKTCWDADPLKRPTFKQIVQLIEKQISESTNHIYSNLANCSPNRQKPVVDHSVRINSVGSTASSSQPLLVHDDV
Chain of Vascular endothelial growth factor receptor 2 (P35968 whole entry): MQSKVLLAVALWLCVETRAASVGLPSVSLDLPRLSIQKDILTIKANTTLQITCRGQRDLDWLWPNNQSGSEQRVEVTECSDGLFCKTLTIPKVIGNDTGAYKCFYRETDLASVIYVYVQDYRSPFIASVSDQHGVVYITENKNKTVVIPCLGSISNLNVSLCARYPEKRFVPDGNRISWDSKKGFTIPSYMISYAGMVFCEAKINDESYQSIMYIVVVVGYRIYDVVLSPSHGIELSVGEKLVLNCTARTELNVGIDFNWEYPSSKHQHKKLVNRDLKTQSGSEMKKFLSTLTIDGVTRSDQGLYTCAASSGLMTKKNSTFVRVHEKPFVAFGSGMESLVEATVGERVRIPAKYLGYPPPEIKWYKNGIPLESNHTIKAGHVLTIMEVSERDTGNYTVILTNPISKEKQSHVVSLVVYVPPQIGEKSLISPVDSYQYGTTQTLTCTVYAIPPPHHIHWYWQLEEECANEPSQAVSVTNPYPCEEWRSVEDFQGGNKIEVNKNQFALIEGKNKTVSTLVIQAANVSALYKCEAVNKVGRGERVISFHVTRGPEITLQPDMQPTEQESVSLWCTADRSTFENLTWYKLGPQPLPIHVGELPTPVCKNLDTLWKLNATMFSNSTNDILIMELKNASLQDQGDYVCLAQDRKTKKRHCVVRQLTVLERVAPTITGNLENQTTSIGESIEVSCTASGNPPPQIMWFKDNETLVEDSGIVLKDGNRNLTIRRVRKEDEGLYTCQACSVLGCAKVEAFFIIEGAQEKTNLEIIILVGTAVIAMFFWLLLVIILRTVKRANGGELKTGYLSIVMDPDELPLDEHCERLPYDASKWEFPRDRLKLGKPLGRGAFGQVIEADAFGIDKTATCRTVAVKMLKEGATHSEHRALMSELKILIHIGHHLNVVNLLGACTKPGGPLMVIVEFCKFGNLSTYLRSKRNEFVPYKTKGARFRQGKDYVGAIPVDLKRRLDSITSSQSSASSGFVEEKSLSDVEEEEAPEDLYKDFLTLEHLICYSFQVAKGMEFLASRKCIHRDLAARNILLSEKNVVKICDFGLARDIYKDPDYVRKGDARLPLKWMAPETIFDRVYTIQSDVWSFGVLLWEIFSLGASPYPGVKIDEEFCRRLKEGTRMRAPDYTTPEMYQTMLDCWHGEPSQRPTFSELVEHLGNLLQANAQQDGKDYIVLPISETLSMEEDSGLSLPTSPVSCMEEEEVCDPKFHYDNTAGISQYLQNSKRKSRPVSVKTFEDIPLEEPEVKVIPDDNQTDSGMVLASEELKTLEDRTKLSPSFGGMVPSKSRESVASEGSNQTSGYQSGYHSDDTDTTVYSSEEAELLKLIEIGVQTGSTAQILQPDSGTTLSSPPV

One may read the IC50 as the midpoint of a concentration-inhibition curve. For `Cc1[nH]c2c(c1C(=O)NCCCN1CCCC1)CCC/C2=C1/C(=O)Nc2ccc(F)cc21`, the IC50 in data set [1] was determined as 10.7 nM; in [2], 64.8 nM; in [3], 3.8 nM.

Regarding `Cc1[nH]c2c(c1C(=O)NCCN1CCCCC1)CCC/C2=C1/C(=O)Nc2ccc(F)cc21`, the IC50 in data set [1] is 5.8 nM; in [2] it was 19.4 nM; in data set [3] it was 4.3 nM.

`Cc1[nH]c2c(c1C(=O)N1CCC(N3CCCCC3)CC1)CCC/C2=C1/C(=O)Nc2ccc(F)cc21`: the IC50 in data set [1] was 7.8 nM; in data set [2], 40.7 nM; in data set [3], 8 nM.

As for `Cc1[nH]c2c(c1C(=O)NCCN1CCCC1)CCC/C2=C1/C(=O)Nc2ccc(F)cc21`, the IC50 in data set [1] came to 7.4 nM; in data set [2] it was 41.6 nM; in data set [3] it was 9.7 nM.

For the molecule `CCN(CC)CCNC(=O)c1c(C)[nH]c2c1CCC/C2=C1/C(=O)Nc2ccc([N+](=O)[O-])cc21`, the IC50 stood at 6.9 nM in data set [1], 13.3 nM in data set [2] and 25.7 nM in data set [3].

Turning to `CCN(CC)CCNC(=O)c1c(C)[nH]c2c1CCC/C2=C1/C(=O)Nc2cccc(F)c21`, the figures for the IC50 in data set [1], in data set [2] and in data set [3] were 43.1 nM, 62.1 nM and 15 nM, respectively.

For `CCN(CC)CCNC(=O)c1c(C)[nH]c2c1CCC/C2=C1/C(=O)Nc2ccc(C)cc21`, the IC50 in [1] came out at 4.1 nM; in [2] it was 15.6 nM; in data set [3], 2.3 nM.

For `Cc1[nH]c2c(c1C(=O)NCCCN1CCOCC1)CCC/C2=C1/C(=O)Nc2ccc(F)cc21`, the 50% inhibitory concentration (IC50) in data set [1] was 5.7 nM; in data set [2] it was 18 nM; in data set [3] it was 1 nM.

Regarding `CCN(CC)CCNC(=O)c1c(C)[nH]c2c1CCC/C2=C1/C(=O)Nc2ccc(S(=O)(=O)N(CC)CC)cc21`, the IC50 in [1] amounted to 398 nM; in data set [2], 396 nM; in data set [3], 330 nM.

As to `CCN(CC)CCNC(=O)c1c(C)[nH]c(/C=C2\C(=O)Nc3ccc(F)cc32)c1C` [SUNITINIB], the IC50 was determined as 5610 nM in the data set with HepG2; 2440 nM in the data set with T-24; 1470 nM in the data set on HT-29; 4780 nM in “cells”; 3630 nM in the data set with BXPC-3 [4].

In the case of `CCN(CC)CCNC(=O)c1c(C)[nH]c2c1CCC/C2=C1/C(=O)Nc2ccc(C(=O)OC)cc21`, the IC50 in data set [1] worked out at 256 nM; in [2] it was 70.3 nM; in data set [3] it was 167 nM.

Turning to `CCN(CC)CCNC(=O)c1c(C)[nH]c2c1CCC/C2=C1/C(=O)Nc2ccc(OC)cc21`, the IC50 in data set [1] stood at 35.5 nM; in data set [2], 101 nM; in data set [3] it was 24.6 nM.

On to `CCN(CC)CC(O)CNC(=O)c1c(C)[nH]c2c1CCC/C2=C1/C(=O)Nc2ccc(F)cc21` (configuration not stated), for which the half-inhibitory concentration (IC50) in [1] amounted to 4.1 nM; in data set [2] it was 19.3 nM; in [3], 2.5 nM.

For `Cc1[nH]c2c(c1C(=O)NCCN1CCOCC1)CCC/C2=C1/C(=O)Nc2ccc(F)cc21`, the IC50 amounted to 2 nM in data set [1], 13.2 nM in [2] and 1.6 nM in [3].

As for `Cc1[nH]c2c(c1C(=O)NCCc1ccccn1)CCC/C2=C1/C(=O)Nc2ccc(F)cc21`, the figures for the IC50 in data set [1], in [2] and in data set [3] were 37.7 nM, 161 nM and 11.4 nM, respectively.

Regarding `CCN(CC)CCNC(=O)c1c(C)[nH]c2c1CCC/C2=C1/C(=O)Nc2ccc(Br)cc21`, the IC50 in [1] was found to be 2.3 nM; in [2] it was 7.6 nM; in data set [3] it was 3.9 nM.

Usually bioavailability stands for dose-corrected exposure relative to a reference, in per cent. For the molecule `CCN(CC)CCNC(=O)c1c(C)[nH]c2c1CCC/C2=C1/C(=O)Nc2ccc(F)cc21` [TAFETINIB], in data set [5], the bioavailability was 90%. Besides, the IC50 in data set [6] turned out to be 1.3 nM; in data set [7] it was 1.3 nM; in the data set with HepG2 it was 7270 nM; in the data set with T-24, 3310 nM; with HT-29, 1200 nM; in “cells”, 6110 nM. In the data set on BXPC-3 [4], this molecule registered an IC50 of 520 nM.

In the case of `CCN(CC)CCNC(=O)c1c(C)[nH]c2c1CCC/C2=C1/C(=O)Nc2c(F)cccc21`, the half-inhibitory concentration (IC50) in data set [1] is 181 nM; in data set [2], 260 nM; in data set [3], 112 nM.

On to `Cc1[nH]c2c(c1C(=O)NCCN(C)C)CCC/C2=C1/C(=O)Nc2ccc(F)cc21`, for which the IC50 in data set [1] was determined as 6.6 nM; in data set [2], 22.7 nM; in [3] it was 3 nM.

Consider `CCN(CC)CCNC(=O)c1c(C)[nH]c2c1CCC/C2=C1/C(=O)Nc2ccc(Cl)cc21`, for which the IC50 in the data set on HepG2 was 3140 nM; in the data set on T-24 it was 1830 nM; in data set [1] it was 2.7 nM; in [2], 12.1 nM; in data set [3] it was 2.6 nM; in the data set on HT-29, 6480 nM. Also, the IC50 in the data set “cells” came out at 2030 nM; with BXPC-3 [4] it was 1950 nM.

With `Cc1[nH]c2c(c1C(=O)N1CCOCC1)CCC/C2=C1/C(=O)Nc2ccc(F)cc21`, the IC50 is 2.1 nM in [1], 40.1 nM in [2] and 1.1 nM in [3].

In the case of `Cc1[nH]c2c(c1C(=O)NCCO)CCC/C2=C1/C(=O)Nc2ccc(F)cc21`, the half-maximal inhibitory concentration (IC50) in data set [1] worked out at 1.4 nM; in [2], 12.7 nM; in data set [3], 1.1 nM.

In the case of `CCN(CC)CCNC(=O)c1c(C)[nH]c2c1CCC/C2=C1/C(=O)Nc2ccccc21`, the “Ratio IC50” value in the data set on BXPC-3 [8] is given as 7. Also, the concentration for half-maximal inhibition (IC50) in the data set with HepG2 turned out to be 7730 nM; in the data set on T-24 it was 3560 nM; in data set [2], 89.9 nM; in [3], 9.4 nM; in the data set on HT-29, 540 nM; in the data set “cells”, 6730 nM. The molecule also yielded an IC50 in the data set with BXPC-3 [4] of 520 nM.

`CCN(CC)CCCNC(=O)c1c(C)[nH]c2c1CCC/C2=C1/C(=O)Nc2ccc(F)cc21`: the concentration for half-maximal inhibition (IC50) in data set [1] was found to be 9.9 nM; in data set [2] it was 21.3 nM; in data set [3], 2.7 nM.

Consider `Cc1[nH]c2c(c1C(=O)N1CCC[C@H]1CN1CCCC1)CCC/C2=C1/C(=O)Nc2ccc(F)cc21`, for which the IC50 in data set [1] turned out to be 8.5 nM; in data set [2] it was 118 nM; in data set [3], 11.8 nM.
